Data set [1] deals with A549 cells. The note with it: cited from earlier work.
Data set [2] deals with A549 cells. Kind of data set: MTT cell viability assay on A549 cells. The format is cell-based, human. Conditions: 24 h; for cytotoxicity (A549 cells viability, in words): single concentration 12 µM. The procedure: All the synthetic coumarins (7, 8a–f, 9a–g, 10, 11, 12a–c, 13a–c, 14–17) were first screened for their in vitro cytotoxic activity at a single concentration (12 µM) against NSCLC cell line (human lung adenocarcinoma A549) for 24 h, using the well-established 3-(4,5-dimethylthiazol-2-yl)-2,5-diphenyltetrazolium bromide (MTT) assay.
The effect of coumarin derivatives on cell viability was evaluated by the MTT assay at a single dose according to the NCI testing protocol or at different concentrations for IC50 determination. Coumarin derivatives were dissolved in dimethyl sulfoxide (DMSO) and then diluted with DMEM. Briefly, cells were plated in 96-well plates (2 × 10^4/well) and each coumarin derivative at 12 µM was added to the culture medium, and the cell cultures were continued for 24 h. Cisplatin (2.6 µM) was used as a reference drug. Thereafter, the medium was replaced with fresh DMEM containing 5 mg/mL MTT. Following an incubation period (4 h) in a humidified CO2 incubator at 37 °C and 5% CO2, the supernatant was removed, and dimethyl sulfoxide solution (DMSO, […]) was added to each cultured plate. After incubation at room temperature for 15 min, the absorbance of the solubilized MTT formazan product was spectrophotometrically measured at 540 nm. Three individual wells were assayed for each treatment, and the percentage viability relative to the control sample was determined as (absorbance of treated cells/absorbance of untreated cells) × 100%. Only the compound that reduced the viability by more than half the value of the control cells were screened in a range of concentration (10^−8 to 10^−3 M) with the A549, H2170, and NHI-3T3 cell lines. The concentration of 9f compound that reduced the viable cell number by 50% (CC50) was determined using a non-linear regression approach, and the mean value of CC50 for each cell type was calculated from triplicate.
Figure 1 Effect of synthetic coumarin derivatives on cell viability. The viability of A549 cells was determined using the MTT assay after exposure at a single concentration (12 µM) of the compounds or cisplatin (2.6 µM) for 24 h. The percentage of inhibition was calculated considering the cells treated with medium (DMEM), which was considered as 100% of cell viability (dotted line). Bars represent the mean ± S.D. from three independent experiments.
1.1. In vitro cytotoxicity assay of 9f compound on A549, H2170 and NIH3T3 cells
In order to determine the cytotoxic effect of 9f compound, the tumor cell lines A549 and H2170, and non-tumor cell line NHI-3T3 (1×10^5 per well) were seeded in the presence of the 9f compound concentration (1×10-3 to 1×10^-8 M) in 96-well microliter culture plate in a humidified CO2 (5%) incubator at 37 °C for 24h. Cell viabilities were measured using MTT assay as described in Materials and Methods Section. Three individual wells were assayed for each treatment and the percentage viability relative to the control sample was determined as (absorbance of treated cells/absorbance of untreated cells)×100%. A nonlinear regression analysis calculated using Prism 7.0 software (Graph- […]
25.8 ± 1.7 µM to NHI-3T3 cells (Figure S1).
Figure S1. Cytotoxicity assay (CC50) of increasing concentration of 9f compound on tumor cell lines (A549 and H2170) and non-tumor cell line (NHI-3T3) after 24 hours using MTT assay. All data were reported as the mean ± S.D. CC50 (M) values were calculated from the dose response curve using Prim 7 software.
(1 picture or pasted object on this page, not shown here)
(Tetrazolium assays rely on reduction of a dye to a coloured formazan, in cell work by metabolically active cells.)

A further data set deals with vimentin in A549 cells. Kind of data set: Vimentin expression by immunofluorescence and flow cytometry. The format is cell-based, human. The note with it: 7 µM, 24 h. As to the method:
(§1) For induction of the EMT process, A549 cells (1 × 10^5 per well) were seeded in 24-well culture plates and treated with 1 ng/mL IL-1β (Peprotech, Rocky Hill, NJ, USA) for 24 h. In the unstimulated cells, DMEM medium was added. Then, the morphological alteration of cells was observed under a microscope. This protocol for EMT induction is as reported in the previous literature. To evaluate the effects of coumarin derivative with respect to EMT induced by IL-1β, cells were pretreated with compound 9f at 7 µM, being this treatment also maintained during stimulation with IL-1β for 24 h.
In another set of experiments, the analysis for vimentin, a well-recognized marker for its selective expression and specific role in the mesenchymal state, was performed. […] Stained cells were analyzed by a flow cytometer (FACSCanto II, Becton Dickinson, San Jose, CA, USA) accompanied with the BD FACSDIVA™ software for data analysis. The cell-associated fluorescence of 5000 cells per sample was measured as mean fluorescence intensity (MFI) in the FL1 channel. The MFI values were corrected for unspecific staining by subtracting the fluorescence of cells unstained (negative control).
Figure 3 Compound 9f downregulates the expression of mesenchymal cell marker vimentin in IL-1β-induced EMT. […] The mesenchymal markers vimentin was detected by immunofluorescence. […] Magnification ×400 for fluorescence microscope. […]

The subject of data set [3] is IL-1β-stimulated A549 cells. Kind of data set: IL-1β-induced EMT: cell morphology and F-actin (FITC-phalloidin) staining. Format: cell-based, human. The note with it: 7 µM, 1 ng/mL IL-1β, 24 h. The procedure: as §1
After 24 h, cells were fixed for 15 min at 4 °C with 4% paraformaldehyde in PBS. […] Cell morphology was determined using an inverted epifluorescence microscope (Nikon Eclipse 50i). Fluorescence quantification was done using ImageJ 1.47 software (NIH, Bethesda, MD, USA). Images were analyzed through the “Measure” menu, which allowed analyzing the fluorescence intensity signal per cell from original photomicrographs.
Figure 2 Compound 9f inhibited IL-1β-induced EMT in vitro. […] Cells were photographed using phase-contrast microscopy (A–D) or fluorescence microscopy (E–H). […] Actin (green) was detected via immunofluorescence in formaldehyde-fixed cells with FITC-conjugated phalloidin (1:100). […] Magnification ×100 (insert, magnification ×200) for phase-contrast microscope and ×400 for fluorescence microscope.

Data set [4] relates to A549 cells. Kind of data set: In vitro scratch wound healing assay. Conditions: 7 µM, 24 h, IL-1β-stimulated A549 cells. Format: cell-based, human. The procedure:
To evaluate the effect of 9f on epithelial motility, we performed the scratch assay as described by Cardoso et al.. Cells were maintained in 24-well plates until they reached 90% confluency. Thereafter, a vertical stripe on the cell monolayer was made using a sterile pipette (200 μL) tip. The wells were washed with PBS to remove dead cells and debris, and then, 9f was added at a concentration of 7 µM. As a control, the cells were treated with cell culture medium. Photographs were captured by a digital camera connected to an inverted microscope (Olympus IX70) at 0 and 24 h after scratch. The migration gap area of the cells was measured by ImageJ software (https://imagej.nih.gov/ij/; accessed on 24 November 2020, Center for Information Technology, National Institute of Health, Bethesda, […], USA). Each measurement was repeated three times.
Figure 4 The effect of 9f on the migration of A549 cells assayed by the wound-healing assay. Cells were treated with 9f at 7 µM, and images were captured to calculate the scratch closure. In (A), representative photomicrography images showing the cell migration toward the cell-free area after treatment with DMEM (control) or 9f and after 24 h. […] Values represent mean ± S.D. from three independent experiments. (+++) p < 0.001 compared with respective DMEM-treated cells and (***) p < 0.001 compared with IL-1β-stimulated cell vehicle-treated cells.

For another data set, the system named is H2170 cells. Kind of data set: MTT cell viability assay (CC50) on H2170 cells. The format is cell-based. The note with it: Homo sapiens, NCI-H2170, 24 h, mean ± S.D., read-out: CC50 (concentration that reduces the viable cell number by 50%). The text has this:
(§2) Among these two compounds, 9f was the most promising, reducing the A549 cells viability to less than 20%. […] Distinct explanations might be used to sustain this fact, including biochemical and metabolic changes between cell lines. While normal cells follow a set of organized metabolic programs, cancer cells show intrinsic or acquired resistance to apoptosis and also a metabolic reprogramming in order to meet the increased energy demands.
(§3) The effect of coumarin derivatives on cell viability was evaluated by the MTT assay at a single dose according to the NCI testing protocol or at different concentrations for IC50 determination. […] After incubation at room temperature for 15 min, the absorbance of the solubilized MTT formazan product was spectrophotometrically measured at 540 nm. Three individual wells were assayed for each treatment, and the percentage viability relative to the control sample was determined as (absorbance of treated cells/absorbance of untreated cells) × 100%. […]
In order to determine the cytotoxic effect of 9f compound, the tumor cell lines A549 and H2170, and non-tumor cell line NHI-3T3 (1×10^5 per well) were seeded in the presence of the 9f compound concentration (1×10-3 to 1×10^-8 M) in 96-well microliter culture plate in a humidified CO2 (5%) incubator at 37 °C for 24h. Cell viabilities were measured using MTT assay as described in Materials and Methods Section. […]

A short description of data set [5]: MTT cell viability assay (CC50) on NIH-3T3 cells. The format is cell-based. The note with it: mouse, NIH-3T3 fibroblast cells (non-tumour), NIH-3T3 non-cancer cells, mean ± S.D., read-out: CC50 (concentration that reduces the viable cell number by 50%).
Text: as §2
A549, H2170, and normal mouse fibroblast (NIH-3T3) cell lines were obtained from the Rio de Janeiro Cell Bank (BCRJ). […]
as §3
Figure S1. […] All data were reported as the mean ± S.D. CC50 (M) values were calculated from the dose response curve using Prim 7 software. […]

As to `CC(C)=CCC/C(C)=C/CC/C(C)=C/COc1ccc2ccc(=O)oc2c1` [umbelliprenin], in the data set on A549 cells [1], the IC50 (as a rule, the concentration that inhibits the measured activity by half) is 52 ± 1.97 µM.

Turning to `O=c1ccc2ccc(CCc3ccccc3)cc2o1` [Compound 16], the “cytotoxicity (A549 cells viability, in words)” value (shortened to “cytotoxicity”) with A549 cells [2] is given as “little or no cytotoxicity”.

Regarding `O=c1ccc2cc(-c3ccc(Cl)c(Cl)c3)ccc2o1` [Compound 9f], the “expression of mesenchymal marker vimentin” value in the data set with vimentin in A549 cells (IL-1β-stimulated (1 ng/mL) A549 cells) was “significantly diminished”. For the same molecule, the “levels of vimentin expression” value in the data set on vimentin in A549 cells (cells unstimulated with IL-1β) was “did not change”. Also, the actin cytoskeleton reorganization result in data set [3] (FITC-labeled phalloidin) is “attenuated the changes in the actin cytoskeleton reorganization”. The “morphological changes (mesenchymal characteristics) induced by IL-1β” value in data set [3] (phase-contrast microscopy) is listed as “impairment in changes in its mesenchymal characteristics induced by IL-1β”. The “migration (wound closure)” value in the data set on A549 cells [4] was “significantly reduced”. The CC50 is 7.1 ± 0.8 µM with A549 cells [2] (Homo sapiens, A549 cells, mean ± S.D., read-out: CC50 (concentration that reduces the viable cell number by 50%)) and 3.3 ± 0.5 µM with H2170 cells. The CC50 at 24 h in data set [5] worked out at 25.8 µM.

As to `O=c1ccc2ccc(Cc3ccccc3)cc2o1` [Compound 15], in the data set on A549 cells [2], the “cytotoxicity” value is on record as “little or no cytotoxicity”.

With `CC(=O)Oc1ccc2cc(-c3ccc(S(C)(=O)=O)cc3)c(=O)oc2c1OC(C)=O` [8-(acetyloxy)-3-(4-methanesulfonylphenyl)-2-oxo-2H-chromen-7-yl acetate], in the data set with A549 cells [1], the IC50 was 24.2 µM.

Regarding `O=c1ccc2cc(C#CCCCc3ccccc3)ccc2o1` [Compound 13b], in the data set with A549 cells [2], the “cytotoxicity” value is reported as “little or no cytotoxicity”.

Consider `O=c1ccc2cc(Cc3ccccc3)ccc2o1` [Compound 14], for which, in the data set on A549 cells [2], the “cytotoxicity” value is recorded as “little or no cytotoxicity”.

As for `COc1ccccc1-c1ccc2ccc(=O)oc2c1` [Compound 8b], the “cytotoxicity” value with A549 cells [2] was “little or no cytotoxicity”.

With `COc1ccccc1-c1ccc2oc(=O)ccc2c1` [Compound 9c], in the data set on A549 cells [2], the “cytotoxicity” value is “little or no cytotoxicity”.

Regarding `O=c1ccc2ccc(C#CCO)cc2o1` [Compound 12c], in the data set with A549 cells [2], the “cytotoxicity” value is reported as “little or no cytotoxicity”.

The values are drawn from paper PMC8782015, “Coumarin Derivatives Exert Anti-Lung Cancer Activity by Inhibition of Epithelial–Mesenchymal Transition and Migration in A549 Cells” (Pharmaceuticals, 2022).
